The record followed here is the supplement of paper PMC10307832.

Holding throughout (test): relative viability (nuclei count vs DMSO), 5 days (fraction); higher = more cells survive
Compound in experiment [1]: CN1C=C(C2=CC=CC=C21)/C=C\3/C4=C(C=CC=N4)NC3=O + COc1cc2c(Oc3ccc(NC(=O)C4(C(=O)Nc5ccc(F)cc5)CC4)cc3F)ccnc2cc1OCCCN1CCOCC1 [Foretinib] (partner 0.25 µM)
The method in brief:
(§1)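 The day after seeding in 1536-well plates, lung cancer cell lines were treated by pin tool with a single drug, or with a fixed anchor-drug dose together with five library-drug doses (not always all listed) in √10 steps. After 5 days, a combined fix-and-stain solution (final 0.05% Triton X-100, 1% formaldehyde, 1 ug/ml Hoechst) was added. Nuclei counted on 4× images gave relative viability as treated counts over vehicle counts, reported as the median of duplicate plates.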

Compound in the experiment “Trametinib + Olaparib”: CC(=O)Nc1cccc(-n2c(=O)n(C3CC3)c(=O)c3c(Nc4ccc(I)cc4F)n(C)c(=O)c(C)c32)c1 [Trametinib] + O=C(c1cc(Cc2n[nH]c(=O)c3ccccc23)ccc1F)N1CCN(C(=O)C2CC2)CC1 [Olaparib] (partner 8 µM)
Summed up:
as §1

Compound in the experiment “Trametinib + Lapatinib”: CC(=O)Nc1cccc(-n2c(=O)n(C3CC3)c(=O)c3c(Nc4ccc(I)cc4F)n(C)c(=O)c(C)c32)c1 [Trametinib] + CS(=O)(=O)CCNCc1ccc(-c2ccc3ncnc(Nc4ccc(OCc5cccc(F)c5)c(Cl)c4)c3c2)o1 [Lapatinib] (partner 2 µM)
The method in brief:
as §1

Compound in experiment [2]: CN1C=C(C2=CC=CC=C21)/C=C\3/C4=C(C=CC=N4)NC3=O + O=C(c1cc(Cc2n[nH]c(=O)c3ccccc23)ccc1F)N1CCN(C(=O)C2CC2)CC1 [Olaparib] (partner 8 µM)
Summed up:
as §1

Regarding NCI-H650, the relative viability in experiment [1] (first compound 0.02 µM) is 1.05; in experiment [1] (first compound 0.06325 µM), 0.938; in experiment [1] (first compound 0.6325 µM), 1.02; in experiment [1] (first compound 2 µM) it was 1; with Trametinib + Olaparib (first compound 0.0025 µM) it was 0.444; with Trametinib + Olaparib (first compound 0.007906 µM) it was 0.434. In addition, the relative viability in the experiment with Trametinib + Olaparib (first compound 0.025 µM) was 0.568; with Trametinib + Olaparib (first compound 0.07906 µM), 0.649; in the experiment with Trametinib + Olaparib (first compound 0.25 µM), 0.542; with Trametinib + Lapatinib (first compound 0.0025 µM) it was 0.885; with Trametinib + Lapatinib (first compound 0.007906 µM), 1.19; in the experiment with Trametinib + Lapatinib (first compound 0.025 µM), 0.845. Besides, the relative viability came out at 0.825 with Trametinib + Lapatinib (first compound 0.07906 µM); 0.498 with Trametinib + Lapatinib (first compound 0.25 µM); 0.464 in experiment [2] (first compound 0.02 µM); 0.418 in experiment [2] (first compound 0.06325 µM); 0.434 in experiment [2] (first compound 0.6325 µM); 0.411 in experiment [2] (first compound 2 µM).

With COR-L 105, the relative viability stood at 1.09 in experiment [1] (first compound 0.02 µM); 0.993 in experiment [1] (first compound 0.06325 µM); 0.834 in experiment [1] (first compound 0.2 µM); 0.957 in experiment [1] (first compound 0.6325 µM); 0.952 in experiment [1] (first compound 2 µM); 0.738 with Trametinib + Olaparib (first compound 0.0025 µM). Moreover, the relative viability with Trametinib + Olaparib (first compound 0.007906 µM) worked out at 0.76; with Trametinib + Olaparib (first compound 0.025 µM), 0.498; with Trametinib + Olaparib (first compound 0.07906 µM), 0.466; in the experiment with Trametinib + Olaparib (first compound 0.25 µM), 0.417; with Trametinib + Lapatinib (first compound 0.0025 µM), 0.37; with Trametinib + Lapatinib (first compound 0.007906 µM), 0.413. The relative viability with Trametinib + Lapatinib (first compound 0.025 µM) was 0.332; with Trametinib + Lapatinib (first compound 0.07906 µM) it was 0.381; with Trametinib + Lapatinib (first compound 0.25 µM), 0.326; in experiment [2] (first compound 0.02 µM), 0.522; in experiment [2] (first compound 0.06325 µM), 0.459; in experiment [2] (first compound 0.2 µM), 0.478. In addition, the relative viability in experiment [2] (first compound 0.6325 µM) is 0.585; in experiment [2] (first compound 2 µM), 0.967.

For NCI-H1755, the relative viability in experiment [1] (first compound 0.02 µM) came out at 0.813; in experiment [1] (first compound 0.06325 µM), 0.83; in experiment [1] (first compound 0.2 µM), 0.899; in experiment [1] (first compound 0.6325 µM), 0.838; in experiment [1] (first compound 2 µM), 0.833; in the experiment with Trametinib + Olaparib (first compound 0.0025 µM), 0.849. Further, the relative viability in the experiment with Trametinib + Olaparib (first compound 0.007906 µM) amounted to 0.826; with Trametinib + Olaparib (first compound 0.025 µM) it was 0.804; with Trametinib + Olaparib (first compound 0.07906 µM), 0.807; with Trametinib + Olaparib (first compound 0.25 µM) it was 0.742; with Trametinib + Lapatinib (first compound 0.0025 µM), 0.969; in the experiment with Trametinib + Lapatinib (first compound 0.007906 µM), 0.897. The relative viability with Trametinib + Lapatinib (first compound 0.025 µM) came to 0.849; with Trametinib + Lapatinib (first compound 0.07906 µM) it was 0.871; with Trametinib + Lapatinib (first compound 0.25 µM), 0.863; in experiment [2] (first compound 0.02 µM), 0.903; in experiment [2] (first compound 0.06325 µM), 0.946; in experiment [2] (first compound 0.2 µM), 0.83. The figures for the relative viability in experiment [2] (first compound 0.6325 µM) and in experiment [2] (first compound 2 µM) were 0.699 and 0.681, respectively.

For the cell line NCI-H2085, the relative viability in experiment [1] (first compound 0.02 µM) was determined as 1.1; in experiment [1] (first compound 0.06325 µM), 0.843; in experiment [1] (first compound 0.2 µM), 0.998; in experiment [1] (first compound 0.6325 µM), 1.02; in experiment [1] (first compound 2 µM) it was 1.02; with Trametinib + Olaparib (first compound 0.0025 µM), 0.766. Besides, the relative viability with Trametinib + Olaparib (first compound 0.007906 µM) was 0.659; with Trametinib + Olaparib (first compound 0.025 µM) it was 0.558; with Trametinib + Olaparib (first compound 0.07906 µM), 0.638; in the experiment with Trametinib + Olaparib (first compound 0.25 µM), 0.615; in the experiment with Trametinib + Lapatinib (first compound 0.0025 µM), 0.783; with Trametinib + Lapatinib (first compound 0.007906 µM), 0.707. The relative viability amounted to 0.426 with Trametinib + Lapatinib (first compound 0.025 µM); 0.668 with Trametinib + Lapatinib (first compound 0.07906 µM); 0.549 with Trametinib + Lapatinib (first compound 0.25 µM); 0.806 in experiment [2] (first compound 0.02 µM); 0.75 in experiment [2] (first compound 0.06325 µM); 0.86 in experiment [2] (first compound 0.2 µM). Besides, the relative viability in experiment [2] (first compound 0.6325 µM) came to 0.857; in experiment [2] (first compound 2 µM), 0.847.

Regarding NCI-H2023, the relative viability in experiment [1] (first compound 0.02 µM) stood at 0.841; in experiment [1] (first compound 0.06325 µM), 0.837; in experiment [1] (first compound 0.6325 µM), 0.924; in experiment [1] (first compound 2 µM), 0.746; with Trametinib + Olaparib (first compound 0.0025 µM) it was 0.492; with Trametinib + Olaparib (first compound 0.007906 µM) it was 0.448. Besides, the relative viability came out at 0.419 in the experiment with Trametinib + Olaparib (first compound 0.025 µM); 0.447 with Trametinib + Olaparib (first compound 0.07906 µM); 0.294 in the experiment with Trametinib + Olaparib (first compound 0.25 µM); 0.947 with Trametinib + Lapatinib (first compound 0.0025 µM); 0.356 with Trametinib + Lapatinib (first compound 0.007906 µM); 0.383 with Trametinib + Lapatinib (first compound 0.025 µM). The relative viability was 0.579 with Trametinib + Lapatinib (first compound 0.07906 µM); 0.181 with Trametinib + Lapatinib (first compound 0.25 µM); 0.451 in experiment [2] (first compound 0.02 µM); 0.53 in experiment [2] (first compound 0.06325 µM); 0.566 in experiment [2] (first compound 0.2 µM); 0.432 in experiment [2] (first compound 0.6325 µM). Besides, the relative viability in experiment [2] (first compound 2 µM) was found to be 0.517.

Turning to HOP-62, the relative viability in experiment [1] (first compound 0.02 µM) was 1.11; in experiment [1] (first compound 0.06325 µM) it was 1.17; in experiment [1] (first compound 0.2 µM) it was 1.22; in experiment [1] (first compound 0.6325 µM), 1.13; in experiment [1] (first compound 2 µM), 1.12; with Trametinib + Olaparib (first compound 0.0025 µM) it was 0.395. The relative viability was 0.377 in the experiment with Trametinib + Olaparib (first compound 0.007906 µM); 0.417 with Trametinib + Olaparib (first compound 0.025 µM); 0.376 with Trametinib + Olaparib (first compound 0.07906 µM); 0.125 with Trametinib + Olaparib (first compound 0.25 µM); 0.949 with Trametinib + Lapatinib (first compound 0.0025 µM); 0.903 in the experiment with Trametinib + Lapatinib (first compound 0.007906 µM). The relative viability with Trametinib + Lapatinib (first compound 0.025 µM) was found to be 0.387; with Trametinib + Lapatinib (first compound 0.07906 µM), 0.39; with Trametinib + Lapatinib (first compound 0.25 µM), 0.104; in experiment [2] (first compound 0.02 µM) it was 0.537; in experiment [2] (first compound 0.06325 µM), 0.509; in experiment [2] (first compound 0.6325 µM), 0.968. Besides, in experiment [2] (first compound 2 µM), the relative viability worked out at 0.629.
